Laboratory results taken from patent US12037354B2, “Cyclic pantetheine derivatives and uses thereof” (VectivBio Comet AG, priority 2018, dated 2024).

What was measured:
[1] = system: Peripheral blood mononuclear cells co-cultured with venular endothelial cells (Sag system); assay: BioMAP Sag system, Example 828; format: cell-based, human
Description: (§1) The BioMAP platform (BioMAP® Diversity PLUS Panel from Eurofins) is an in vitro phenotypic profiling technology that screened the compounds of the present disclosure (hereafter indicated as test agents) in human primary cell-based systems modelling complex tissue and disease states. The BioMAP assays were performed using the Eurofin's BioMAP Technology Platform as (see references 1 to 13 in the example 824 section) to model different diseases on primary cell-based model systems. These systems consisted of either single primary cell types or co-culture cells. Adherent cell types were cultured or co-cultured in 96 or 384-well plates until confluence followed by the addition of compounds prepared in DMSO at a final concentration of ≤0.1%. In each cell-based system, primary cells from heathy donors (2-6 donors) were pooled and treated with compounds at 1 and 10 μM dose 1 h prior to stimulation and remain in culture as indicated in
(§2) Example 825, Example 826, Example 827, Example 828, Example 829, Example 830, Example 831, Example 832, Example 833, Example 834, Example 835, Example 836 and Example 837. For on the BioMAP® Diversity PLUS® Panel, please see the following references, which are incorporate herein.
Following the general procedure as described in Example 824, Peripheral blood mononuclear cells were co-cultured with venular endothelial cells and treated with soluble antigen (T-cell ligands) (Sag system) in the presence or absence of compounds to model autoimmune and chronic inflammation. Biomarkers read out were; MCP-1, CD38, CD40, E-selectin, CD69, IL-8, MIG, PBMC cytotoxicity, Proliferation and SRB.

[2] = system: Lung fibroblast (MyoF system); assay: BioMAP MyoF system, Example 835; format: cell-based, human; settings: 10 uM
Description: as §1, with “indicated in […]” for “indicated in”
Following the general procedure as described in Example 824, Lung fibroblast (MyoF system) were treated with TNFα and TGFβ for 48 h in the presence or absence of the compounds to model fibrosis, chronic inflammation, wound healing, matrix remodelling. Biomarker read out were; α-SM Actin, bFGF, VCAM-1, Collagen-I, Collagen-III, […], IL-8, decorin, MMP-1, PAI-1, TIMP-1, SRB

[3] = system: Peripheral blood mononuclear cells co-cultured with venular endothelial cells (HUVEC) (LPS system); assay: BioMAP LPS system, Example 827; format: cell-based, human
Description: as §1, §2
Following the general procedure as described in Example 824, Peripheral blood mononuclear cells co-cultured with venular endothelial cells (HUVEC) (LPS system) were stimulated with LPS for 24 h in the presence or absence of compounds, to model cardiovascular disease and chronic inflammation. Biomarkers read out were; MCP-1, VCAM-1, Thrombomodulin, Tissue Factor, CD40, E-selectin, CD69, IL-8, IL-1α, M-CSF, sPGE2, SRB and TNFα.

[4] = system: Venular Endothelial cells (HUVEC) (3C system); assay: BioMAP 3C system, Example 825; format: cell-based, human
Description: as §1, with “In each cell-based system, primary cells from heathy donors (2-6 donors) were pooled and treated with compounds at 1 and 10 μM dose 1 h prior to stimulation and remain in culture as indicated in” left out
Following the general procedure as described in Example 824, Venular Endothelial cells (HUVEC) (3C system) were treated with IL-1β, TNFα, IFNγ for 24 h to model Th1 driven cardiovascular and chronic inflammation diseases in the presence or absence of the compounds. Biomarker read out were; Tissue Factor, ICAM-1, E-selectin, uPAR (CD87), IL-8, […], HLA-DR, proliferation and SRB (Sulfo-rhodamine i.e. staining for protein content).

HepG2 cells = assay: Glucose uptake Glo Assay, Example 821; format: cell-based
Description: The effect of compounds from the present disclosure on glucose uptake was determined in HepG2 cells (ATCC, HB-8065) using the glucose uptake Glo Assay Kit (Promega, 11343 according to manufacturer instructions. HepG2 cells were cultured in complete DMEM-glucose media (Gibco) supplemented with 10% FBS (37° C. incubator with 5% CO2) and seeded in 96-well plates at 30,000 cells/well. After removing the complete media, 100 μL/well of serum-free, high-glucose DMEM media were added to the wells and incubated overnight (37° C. incubator with 5% CO2). Media was then replaced with 100 μl/well DPBS containing 0.6°/o BSA and starved for 1 hour. Next, DPBS was removed and 45 μl/well of insulin (100 nM) or compounds (10 μM-50 μM) were added to the wells and incubated for 10 minutes (37° C. incubator with 5% CO2). Insulin and compounds were prepared in DPBS with 0.6% BSA with a final DMSO concentration of 0.1%. Next, 5 μl of 2DG (10 mM) in DPBS were added per well and allowed to incubate for 20 minutes followed by addition of 25 μl stop buffer. 37.5 μl of the mixture were then transferred to a new plate and 12.5 μl of Neutralization buffer added to the wells. After, 50 μl of 2DG6P detection Reagent were added and incubated for 0.5-1 hour at room temperature. Luminescence was measured with 0.3-1 second integration on a luminometer.

[5] = system: Venular endothelial cells co-cultured with macrophages (Mphg system); assay: BioMAP Mphg system, Example 836; format: cell-based, human
Description: as §1, §2
Following the general procedure as described in Example 824, Venular endothelial cells co-cultured with macrophages (Mphg system) and treated with TLR2 ligand for 24 h in the presence or absence of the compounds to mimic cardiovascular inflammation, restenosis and chronic inflammation. Biomarkers read out were; MCP-1, MIP-1α, VCAM-1, CD40, E-selectin, CD69, IL-8, IL-1α, M-CSF, sIL-10 and SRB.

[6] = Example 988, concentration tested 1 uM
[7] = procedure of Example 827, concentration tested 1 uM
[8] = procedure of Example 825, concentration tested 10 uM
[9] = Homo sapiens, 20 min, read-out: % increase in Glucose Uptake
[10] = procedure of Example 827, concentration tested 10 uM
[11] = procedure of Example 825, concentration tested 1 uM
[12] = procedure of Example 836, 10 uM

SMILES	% decrease in CXCL8/IL-8 ([1]; Sag system, 10 uM) [%]	% decrease in CXCL8/IL-8 ([1]; concentration tested 10 uM) [%]	% decrease in uPA [2] [%]	% decrease in M-CSF [3, 6] [%]	% decrease in IL-1α ([3]; LPS system, 1 uM) [%]	% decrease in IL-8 ([3]; LPS system, 1 uM) [%]	% decrease in M-CSF ([3]; LPS system, 1 uM) [%]	% decrease in Thrombomodulin ([3]; LPS system, 1 uM) [%]	% decrease in Tissue Factor ([3]; LPS system, 10 uM) [%]	% decrease in IL-1α ([3]; concentration tested 1 uM) [%]	% decrease in Thrombomodulin ([3]; concentration tested 1 uM) [%]	% decrease in Tissue Factor ([3]; concentration tested 10 uM) [%]	% decrease in IL-8 [3, 7] [%]	% decrease in IL-8 ([4]; 3C system, 10 uM) [%]	% increase in Proliferation (HUVEC) ([4]; 3C system, 10 uM) [%]	% increase in Proliferation (HUVEC) ([4]; concentration tested 10 uM) [%]	activation at 50 µM (HepG2 cells; [9]) [%]	% increase in Glucose Uptake (HepG2 cells; concentration tested 50 uM) [%]	% increase in sTNFα ([3]; LPS system, 10 uM) [%]	% increase in sTNFα ([3]; concentration tested 10 uM) [%]	other results
C/C=C/C(=O)SCCNC(=O)CCNC(=O)[C@@H]1OP(=O)(O)OCC1(C)C [Compound 36]	≥10	≥10	≥10	≥20	≥10	≥20	≥20	≥10	≥10	≥10	≥10	≥10	≥20	≥10	≥20	≥20	≥ 30	≥30			% decrease in sPGE2 ([3]; LPS system, 10 uM): ≥10%; % decrease in sTNFα ([3]; LPS system, 10 uM): ≥10%; % decrease in sTNFα ([3]; concentration tested 10 uM): ≥10%; % decrease in IL-8 [4, 8]: ≥10%; % increase in MIP-1α ([5]; Mphg system, 10 uM): ≥10%
CC(=O)CC(=O)SCCNC(=O)CCNC(=O)[C@@H]1OP(=O)(O)OCC1(C)C [Compound 42]				≥20	≥10	≥20	≥20	≥10	≥10	≥10	≥10	≥10	≥20						≥20	≥20	% increase in CD69 ([1]; Sag system, 10 uM): ≥10%; % increase in MCP-1 ([1]; Sag system, 10 uM): ≥10%; % increase in CD69 ([1]; concentration tested 10 uM): ≥10%; activation at 10 µM (HepG2 cells; Homo sapiens, 20 min, 10 uM, read-out: % increase in Glucose Uptake): ≥ 30%; % increase in Glucose Uptake (HepG2 cells; concentration tested 10 uM): ≥30%; % decrease in α-SMA ([5]; procedure of Example 836, 1 uM): ≥10%; % increase in MMP-1 ([5]; procedure of Example 836, 1 uM): ≥10%
CCOP1(=O)OCC(C)(C)[C@H](C(=O)NCCC(=O)NCCSC(=O)CCC(=O)O)O1 (stereo partly shown) [Compound 61]				≥10	≥10		≥10		≥10	≥10		≥10					≥ 10	≥10	≥10	≥10	% increase in PBMC Cytotoxicity ([1]; Sag system, 10 uM): ≥10%; % increase in PBMC Cytotoxicity ([1]; concentration tested 10 uM): ≥10%; % decrease in sTNFα ([3]; LPS system, 1 uM): ≥10%; % decrease in IL-8 ([3]; LPS system, 10 uM): ≥20%; % decrease in sTNFα ([3]; concentration tested 1 uM): ≥10%; % decrease in IL-8 [3, 10]: ≥20%; % decrease in IL-8 ([4]; 3C system, 1 uM): ≥10%; % decrease in IL-8 [4, 11]: ≥10%; % decrease in α-SMA [5, 12]: ≥10%; % increase in MMP-1 [5, 12]: ≥10%
COC(=O)CCC(=O)SCCNC(=O)CCNC(=O)[C@@H]1OC(=O)OCC1(C)C [Compound 451]	≥10	≥10		≥20	≥10		≥20	≥10	≥10	≥10	≥10	≥10			≥20	≥20	≥ 20	≥20			% decrease in IL-8 ([3]; LPS system, 10 uM): ≥20%; % decrease in IL-8 [3, 10]: ≥20%; % decrease in IL-8 ([4]; 3C system, 1 uM): ≥10%; % decrease in IL-8 [4, 11]: ≥10%; % decrease in α-SMA ([5]; procedure of Example 836, 1 uM): ≥10%; % decrease in VCAM-1 [5, 12]: ≥10%; % increase in MMP-1 [5, 12]: ≥10%
COC(=O)CCC(=O)SCCNC(=O)CCNC(=O)[C@@H]1OC(C)(CC(=O)OC)OCC1(C)C (stereo partly shown) [Compound 633]			≥10	≥10		≥20	≥10	≥20			≥20		≥20	≥20					≥10	≥10	% decrease in Tissue Factor ([3]; LPS system, 1 uM): ≥10%; % decrease in sPGE2 ([3]; LPS system, 1 uM): ≥10%; % decrease in sTNFα ([3]; LPS system, 1 uM): ≥10%; % decrease in Tissue Factor ([3]; concentration tested 1 uM): ≥10%; % decrease in sTNFα ([3]; concentration tested 1 uM): ≥10%; % increase in Proliferation (HUVEC) ([4]; 3C system, 1 uM): ≥20%; % increase in Proliferation (HUVEC) ([4]; concentration tested 1 uM): ≥20%; % decrease in IL-8 [4, 8]: ≥20%; % decrease in VCAM-1 ([5]; procedure of Example 836, 1 uM): ≥10%; % decrease in α-SMA [5, 12]: ≥10%
